A short description of data set [1]: Caco-2 cell monolayer bidirectional permeability. The class given is in vitro ADME. The settings on record: human. The method, then: The cells were seeded into 6-well inserts with a polyethylene terephthalate (PET) membrane (pore size of 0.4 µm) (BD Falcon) at a density of 1.0 × 10^5 cells. Cell culture was maintained at 37 °C under 90% humidity and 5% CO2. The medium was replaced every 2–3 days for both the apical (AP) and basolateral (BL) chambers of the transwell filters. Cell monolayers were used 19–21 days after seeding, once confluence and differentiation were achieved. To check the integrity of each cell monolayer, the transepithelial electrical resistance (TEER) was measured before and after the experiments with an epithelial voltohmmeter (Millicell-ERS®). Permeability studies were performed by adding apigenin and apigenin-K at a concentration of 50 µM dissolved in HBSS medium (pH 7.4). The transport experiment was initiated by removing the culture medium from the AP and BL chambers. HBSS medium was prewarmed to wash the Caco-2 monolayers twice and, subsequently, to incubate the monolayers for 30 min at 37 °C. Afterwards, the test compounds were added to the apical (AP) or basolateral (BL) chambers to perform bidirectional permeability studies, while the receiving chamber contained the corresponding volume of HBSS. The six-well plate containing the cell monolayers was put into an orbital environmental shaker, which was set at a constant temperature (37 °C) and agitation rate (54 rpm) for the duration of the permeability experiments. […] The apparent permeability (Papp) values for each compound and direction can be calculated according to the following equation:(2) Papp= dQ/dt×1/A×C0×60 where Papp is the apparent permeability (cm/s), dQ/dt is the steady state flux, A is the diffusion area of the membrane (cm^2), C0 is the initial compound concentration in the donor compartment (µM) and 60 is a conversion factor [54]. […] In addition, the efflux ratio (ER) was calculated to determine the absorption mechanism, such as the ratio of Papp (BL-AP) to Papp (AP-BL). (3) ER= Papp (BL-AP)/Papp (AP-BL) The analyses of the samples from the permeability assay were analyzed via a high-performance liquid chromatograph Agilent LC 1100 series (Agilent Technologies, Inc., Palo Alto, CA, USA) controlled by the ChemStation software and equipped with a pump, autosampler, column oven and UV-Vis diode array detector. The samples were separated on a Poroshell 120 SB-C18 column (2.7 µm, 4.6 × 150 mm) after each 10 µL injection and were monitored at 280 nm. […] Quantitative evaluations of the apigenin or apigenin-K concentration were performed using the corresponding calibration graph of each compound with a six-point regression curve (r^2 > 0.999).
(In general: Passage across Caco-2 layers is used to estimate intestinal permeability.)

Data set [2] can be described thus: Trolox equivalent antioxidant capacity (TEAC). The class given is biochemical. The settings on record: Trolox equivalents per millimole of compound; mean ± SD. The method, then: (§1) Three different methods were performed to determine the antioxidant capacity of both apigenins. The Trolox equivalent antioxidant capacity (TEAC) was performed, as previously reported to establish the ABTS^·+ scavenging ability of both compounds [21]. The TEAC of the samples was calculated from the standard curve of Trolox, and the results are expressed in micromoles of Trolox equivalents (TE) per millimole of compound. The ferric reducing antioxidant power (FRAP) assay was performed, as described elsewhere. The reduction of a ferric-tripyridyltriazine complex was estimated, and the results are expressed in micromoles of Fe^2+ per millimole of compound. To assay the capacity of the compounds to scavenge peroxyl radicals, a validated assay of the oxygen radical absorbance capacity (ORAC) method was used. The ORAC assay was carried out on a microplate reader (POLAstar Omega, BMG LabTech GmbH, Offenburg, Germany) with 495 nm excitation and 520 nm emission filters to monitor fluorescein oxidation. The results are expressed in micromoles of TE per millimole of compound.

The nature of data set [3]: Oxygen radical absorbance capacity (ORAC). The class given is biochemical. The settings on record: Trolox equivalents per millimole of compound; mean ± SD. The method, then:
as §1

The nature of data set [4]: Ferric reducing antioxidant power (FRAP). In kind it is biochemical. The settings on record: mean ± SD. The method, then: as §1
Data set [5] has as its system Caco-2 cell monolayer. More on the design: method as in PMID 29186068. The note with it: Caco-2 cell model; cited from earlier work.

In general, efflux ratio refers to a quotient of directional permeabilities that is used to spot active efflux. By Papp A→B is commonly meant how fast a substance crosses the layer from the apical side. A low value points to poor permeation. By Papp B→A is commonly meant how fast a substance crosses the layer from the basolateral side. In general, Papp refers to the rate of passage across a membrane or cell layer, normalised by area and donor concentration. For the molecule `O=c1cc(-c2ccc(O)cc2)oc2cc(O)cc(O)c12` [Apigenin, 4′,5,7-trihydroxyflavone], the efflux ratio at 120 min, 50 µM in data set [1] (Caco-2, pH 7.4, Papp (BL-AP)/Papp (AP-BL)) was 0.51. The molecule also returned a Papp A→B at 120 min, 50 µM in data set [1] (Caco-2, apical-to-basolateral, 50 µM, HBSS pH 7.4, 120 min, mean of 6 replicates ± SD) of 18.1 ± 1.7 ×10⁻⁶ cm/s. This molecule registered a Papp B→A at 120 min, 50 µM in data set [1] (Caco-2, basolateral-to-apical, 50 µM, HBSS pH 7.4, 120 min, mean of 6 replicates ± SD) of 9.3 ± 1.3 ×10⁻⁶ cm/s. The Papp at 120 min, 50 µM in data set [1] (pH 7.4, Caco-2 cell model, read-out: apparent permeability (Papp)) stood at 18.1 ×10⁻⁶ cm/s. The TEAC in data set [2] is listed as 2022.2 ± 154.8 µmol TE/mmol. Further, in data set [3], the ORAC is reported as 887.9 ± 5.8 µmol TE/mmol. The same molecule registered an FRAP in data set [4] of 113.2 ± 12.2 µmol Fe^2+/mmol. Further, the “apparent permeability relative to its flavonol kaempferol” value in data set [5] was 2.5 fold.

Source of the values: article PMC6539602, “Antioxidant and Photoprotective Activity of Apigenin and Its Potassium Salt Derivative in Human Keratinocytes and Absorption in Caco-2 Cell Monolayers” (International Journal of Molecular Sciences, 2019).
